Laboratory results reported in patent US8530663B2, “1-(2-phenoxymethylheteroaryl)piperidine and piperazine compounds” (Theravance, Inc., priority 2010, dated 2013).
Marks after values point to notes of the source that are not given here.

Key:
hSERT [1] = target: T1, hSERT (Homo sapiens, UniProt P31645); experiment: fluorescence-based serotonin reuptake assay (Tsuruda et al. 2010; data with asterisk); format: cell-based; settings: serotonin reuptake inhibition, fluorescence-based assay (data indicated by an asterisk)
T1 construct: expressed in transfected cells; host or cells: HEK-293

hNET [2] = target: T2, hNET (Homo sapiens, UniProt P23975); experiment: fluorescence-based norepinephrine reuptake assay (Tsuruda et al. 2010; data with asterisk); format: cell-based; settings: norepinephrine reuptake inhibition, fluorescence-based assay (data indicated by an asterisk)
T2 construct: expressed in transfected cells; host or cells: HEK-293

hNET [3] = target: T2, hNET; experiment: hNET membrane radioligand binding assay (3H-nisoxetine); settings: hNET membranes, 1.0 nM 3H-nisoxetine; for Ki: read-out: NET pKi (converted)
Experimental: (§1) Membrane radioligand binding assays were used to measure inhibition of labeled ligand (^3H-citalopram or ^3H-nisoxetine or ^3H-WIN35428) binding to membranes prepared from cells expressing the respective human recombinant transporter (hSERT or hNET or hDAT) in order to determine the pKi values of test compounds at the transporters.
(§2) Recombinant human embryonic kidney (HEK-293) derived cell lines stably transfected with hSERT or hNET, respectively, were grown in DMEM medium supplemented with 10% dialyzed FBS (for hSERT) or FBS (for hNET), 100 μg/ml penicillin, 100 μg/ml streptomycin, 2 mM L-glutamine and 250 μg/ml of the aminoglycoside antibiotic G418, in a 5% CO2 humidified incubator at 37° C. When cultures reached 80% confluence, the cells were washed thoroughly in PBS (without Ca^2+ and Mg^2+) and lifted with 5 mM EDTA in PBS. Cells were pelleted by centrifugation, resuspended in lysis buffer (10 mM Tris-HCl, pH7.5 containing 1 mM EDTA), homogenized, pelleted by centrifugation, then resuspended in 50 mM Tris-HCl, pH 7.5 and 10% sucrose at 4° C. Protein concentration of the membrane suspension was determined using a Bio-Rad Bradford Protein Assay kit. Membranes were snap frozen and stored at −80° C. Chinese hamster ovary membranes expressing hDAT (CHO-DAT) were purchased from PerkinElmer and stored at −80° C.
(§3) Binding assays were performed in a 96-well assay plate in a total volume of 200 μL assay buffer (50 mM Tris-HCl, 120 mM NaCl, 5 mM KCl, pH 7.4) with 0.5, 1, and 3 μg membrane protein, for SERT, NET and DAT, respectively.
(§4) Stock solutions (10 mM in DMSO) of test compound were prepared and serial dilutions made using Dilution Buffer (50 mM Tris-HCl, 120 mM NaCl, 5 mM KCl, pH 7.4, 0.1% BSA, 400 μM ascorbic acid).
(§5) Following a 60 minute incubation at 22° C. (or a period sufficient to reach equilibrium), the membranes were harvested by rapid filtration over a 96-well UniFilter GF/B plate, pretreated with 0.3% polyethyleneimine, and washed 6 times with 300 μl wash buffer (50 mM Tris-HCl, 0.9% NaCl, pH 7.5 at 4° C.). Plates were dried overnight at room temperature, ˜45 μl of MicroScint™-20 (Perkin Elmer) added and bound radioactivity quantitated via liquid scintillation spectroscopy. Inhibition curves and saturation isotherms were analyzed using GraphPad Prism Software package (GraphPad Software, Inc., San Diego, Calif.). IC50 values were generated from concentration response curves using the Sigmoidal Dose Response (variable slope) algorithm in Prism GraphPad. Kd and Bmax values for the radioligand were generated from saturation isotherms using the Saturation Binding Global Fit algorithm in Prism GraphPad. pKi (negative decadic logarithm of Ki) values for test compounds were calculated from the best-fit IC50 values, and the Kd value of the radioligand, using the Cheng-Prusoff equation (Cheng & Prusoff (1973) Biochem. Pharmacol. 22(23):3099-3108): Ki=IC50/(1+[L]/Kd), where [L]=concentration radioligand.

hSERT [4] = target: T1, hSERT; experiment: hSERT membrane radioligand binding assay (3H-citalopram); settings: hSERT membranes, 1.0 nM 3H-citalopram; for Ki: read-out: SERT pKi (converted)
Experimental: as §1, §2, §3, §4, §5

hSERT [5] = target: T1, hSERT; experiment: hSERT neurotransmitter uptake assay (3H-5-HT); format: cell-based; settings: serotonin reuptake inhibition, 3H-5-HT uptake, HEK-293 hSERT cells (no asterisk); for IC50: read-out: SERT pIC50 (converted)
Experimental: (§6) Neurotransmitter uptake assays were used to measure inhibition of ^3H-serotonin (^3H-5-HT), ^3H-norepinephrine (^3H-NE), and ^3H-dopamine (^3H-DA) uptake into cells expressing the respective transporter (hSERT, hNET or hDAT) in order to determine the pIC50 values of test compounds at the transporters.
(§7) HEK-293 derived cell lines stably-transfected with hSERT, hNET, or hDAT, respectively, were grown in DMEM medium supplemented with 10% dialyzed FBS (for hSERT) or FBS (for hNET and hDAT), 100 μg/ml penicillin, 100 μg/ml streptomycin, 2 mM L-glutamine and 250 μg/ml of the aminoglycoside antibiotic G418 (for hSERT and hNET) or 800 ug/ml (for hDAT), in a 5% CO2 humidified incubator at 37° C. When cultures reached 80% confluence, the cells were washed thoroughly in PBS (without Ca^2+ and Mg^2+) and lifted with 5 mM EDTA in PBS. Cells were harvested by centrifugation at 1100 rpm for 5 minutes, washed once by resuspension in PBS, then centrifuged. The supernatant was discarded and the cell pellet resuspended, by gentle trituration, in room temperature Krebs-Ringer bicarbonate buffer containing HEPES (10 mM), CaCl2 (2.2 mM), ascorbic acid (200 μM) and pargyline (200 μM), pH 7.4. The final concentration of cells in the cell suspension was 7.5×10^4 cells/ml, 1.25×10^5 cells/ml, and 5.0×10^4 cells/ml for SERT, NET, and DAT cell lines, respectively.
(§8) Stock solutions (10 mM in DMSO) of test compound were prepared and serial dilutions prepared using 50 mM Tris-HCl, 120 mM NaCl, 5 mM KCl, pH 7.4, 0.1% BSA, 400 μM ascorbic acid. Test compounds were incubated for 30 minutes at 37° C. with the respective cells, prior to addition of radiolabeled neurotransmitter, ^3H-5-HT (20 nM final concentration), ^3H-NE (50 nM final concentration), or ^3H-DA (100 nM final concentration).
(§9) Following a 10 minute incubation, at 37° C., with radioligand, the cells were harvested by rapid filtration over a 96-well UniFilter GF/B plate, pretreated with 1% BSA, and washed 6 times with 650 μl wash buffer (ice cold PBS). Plates were dried overnight at 37° C., ˜45 μl of MicroScint™-20 (Perkin Elmer) added and incorporated radioactivity quantitated via liquid scintillation spectroscopy. Inhibition curves were analyzed using GraphPad Prism Software package (GraphPad Software, Inc., San Diego, Calif.). IC50 values were generated from concentration response curves using the Sigmoidal Dose Response (variable slope) algorithm in Prism GraphPad.

hNET [6] = target: T2, hNET; experiment: hNET neurotransmitter uptake assay (3H-NE); format: cell-based; settings: norepinephrine reuptake inhibition, 3H-NE uptake, HEK-293 hNET cells (no asterisk); for IC50: read-out: NET pIC50 (converted)
Experimental: as §6, §7, §8, §9

T1 sequence (P31645 whole entry): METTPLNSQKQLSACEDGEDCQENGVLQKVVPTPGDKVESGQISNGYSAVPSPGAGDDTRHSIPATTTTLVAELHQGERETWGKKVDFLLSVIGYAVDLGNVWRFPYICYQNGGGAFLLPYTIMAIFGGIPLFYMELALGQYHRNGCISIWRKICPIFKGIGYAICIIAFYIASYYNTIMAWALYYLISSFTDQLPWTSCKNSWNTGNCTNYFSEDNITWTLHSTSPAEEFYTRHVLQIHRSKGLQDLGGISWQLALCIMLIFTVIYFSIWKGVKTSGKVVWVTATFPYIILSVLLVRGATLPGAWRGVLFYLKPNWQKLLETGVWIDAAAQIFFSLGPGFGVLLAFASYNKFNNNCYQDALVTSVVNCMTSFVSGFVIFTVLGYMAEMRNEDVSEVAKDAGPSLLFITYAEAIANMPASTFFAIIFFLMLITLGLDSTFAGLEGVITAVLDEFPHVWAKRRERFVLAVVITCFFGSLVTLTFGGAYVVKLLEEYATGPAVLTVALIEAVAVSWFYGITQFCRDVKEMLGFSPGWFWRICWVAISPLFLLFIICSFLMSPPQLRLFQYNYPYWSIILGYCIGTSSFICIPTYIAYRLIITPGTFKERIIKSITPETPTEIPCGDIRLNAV
T2 sequence (P23975 whole entry): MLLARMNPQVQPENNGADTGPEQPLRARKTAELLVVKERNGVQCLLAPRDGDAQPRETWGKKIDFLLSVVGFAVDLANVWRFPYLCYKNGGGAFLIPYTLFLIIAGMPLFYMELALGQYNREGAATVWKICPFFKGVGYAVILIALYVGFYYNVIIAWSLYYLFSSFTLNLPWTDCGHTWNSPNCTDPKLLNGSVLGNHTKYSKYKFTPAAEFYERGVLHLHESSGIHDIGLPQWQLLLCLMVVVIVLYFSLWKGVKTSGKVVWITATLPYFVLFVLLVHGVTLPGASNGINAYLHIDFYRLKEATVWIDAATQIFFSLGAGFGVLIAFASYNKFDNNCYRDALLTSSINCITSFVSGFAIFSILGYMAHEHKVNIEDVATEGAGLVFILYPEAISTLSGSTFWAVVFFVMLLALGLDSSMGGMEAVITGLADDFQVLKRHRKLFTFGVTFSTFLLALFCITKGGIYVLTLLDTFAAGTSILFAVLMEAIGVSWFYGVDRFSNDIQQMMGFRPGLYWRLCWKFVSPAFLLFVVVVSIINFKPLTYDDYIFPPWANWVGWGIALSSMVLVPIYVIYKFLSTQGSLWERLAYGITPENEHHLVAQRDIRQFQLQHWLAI

## Fc1ccc(F)c(OCc2ncccc2C2CCNCC2)c1Cl [Example 2-9]
hSERT [1]
  SERT pIC50: ≧7.0*
hNET [2]
  NET pIC50: ≧7.0*
hNET [3]
  NET pKi: ≧6.0
hSERT [4]
  SERT pKi: ≧7.0

## Fc1cccc(Cl)c1OCc1ccncc1C1CCNCC1 [Example 10-4]
hSERT [5]
  SERT pIC50: ≧7.0
hNET [6]
  NET pIC50: ≧7.0
hNET [3]
  NET pKi: ≧7.0
hSERT [4]
  SERT pKi: ≧7.0

## Fc1cc(F)c(OCc2ccncc2C2CCNCC2)c(F)c1 [Example 9, 4-(2,4,6-Trifluorophenoxymethyl)-1′,2′,3′,4′,5′,6′-hexahydro[3,4]bipyridinyl]
hSERT [5]
  IC50: ≤ 100 nM
hNET [6]
  IC50: ≤ 100 nM
hNET [3]
  Ki: ≤ 100 nM
hSERT [4]
  Ki: ≤ 100 nM

## Fc1cc(F)c(OCc2cccnc2C2CCNCC2)c(F)c1 [Example 13, 3-(2,4,6-Trifluorophenoxymethyl)-1′,2′,3′,4′,5′,6′-hexahydro[2,4]bipyridinyl]
hSERT [5]
  IC50: ≤ 100 nM
hNET [6]
  IC50: ≤ 100 nM
hNET [3]
  Ki: ≤ 100 nM
hSERT [4]
  Ki: ≤ 100 nM

## Fc1cc(F)c(OCc2cscc2C2CCNCC2)c(F)c1 [Example 28-3]
hSERT [5]
  SERT pIC50: ≧7.0
hNET [6]
  NET pIC50: ≧7.0
hNET [3]
  NET pKi: ≧7.0
hSERT [4]
  SERT pKi: ≧7.0

## Fc1cccc(F)c1OCc1cscc1C1CCNCC1 [Example 27, 4-[4-(2,6-Difluorophenoxymethyl)thiophen-3-yl]piperidine]
hSERT [5]
  IC50: ≤ 100 nM
hNET [6]
  IC50: ≤ 100 nM
hNET [3]
  Ki: ≤ 100 nM
hSERT [4]
  Ki: ≤ 100 nM

## Clc1cccc(OCc2sccc2C2CCNCC2)c1 [Example 24, 4-[2-(3-Chlorophenoxymethyl)thiophen-3-yl]piperidine]
hSERT [1]; read-out: SERT pIC50 (converted)
  IC50: ≤ 100 nM
hNET [2]; read-out: NET pIC50 (converted)
  IC50: ≤ 100 nM
hNET [3]
  Ki: ≤ 100 nM
hSERT [4]
  Ki: ≤ 100 nM

## Clc1cccc(OCc2ccsc2C2CCNCC2)c1 [Example 31-2]
hSERT [1]
  SERT pIC50: ≧7.0*
hNET [2]
  NET pIC50: ≧7.0*
hNET [3]
  NET pKi: ≧7.0
hSERT [4]
  SERT pKi: ≧7.0
